The record followed here is patent US20240101570A1 (AMGEN INC., priority 2020, published 2024).

One experiment deals with HCT116 MTAP null cells. Kind of experiment: HCT116 MTAP null cell proliferation / viability (CellTiter-Glo, 6 days). In kind it is cell-based. The following applies: HCT116-MTAP null, 144 h, HCT116 MTAP null cells, 6 days, CellTiter-Glo; read-out: HCT-116 MTAP null IC50. The gist of the method:
(§1)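 Viability read by CellTiter-Glo after 6-day compound exposure of MTAP-null and wild-type HCT116 cells grown in RPMI 1640 with 10% FBS. Dosing used 1:3 steps from 1 or 10 μM (8-9 points) or 1:2 steps from 10 or 50 μM (22 points); IC50 taken where fitted curve crosses 50% of control.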
For orientation: Cellular ATP, detected with luciferase, serves as a proxy for viable cell number.

Another experiment concerns HCT116 WT cells. Kind of experiment: HCT116 WT cell proliferation / viability (CellTiter-Glo, 6 days). Type of experiment: cell-based. The following applies: Homo sapiens, HCT-116, 144 h, HCT116 WT cells, 6 days, CellTiter-Glo; read-out: HCT-116 WT IC50. The gist of the method:
as §1

pIC50: −log10 of the molar value.

The term pIC50 denotes the negative decadic logarithm of the IC50, by convention in mol/L. For the compound `COCC(COC)N(Cc1ccc(C(F)(F)F)cn1)C(=O)c1ccc2nc(N)c3c(c2c1)COC3` [Example 444, 4-amino-N-(1,3-dimethoxy-2-propanyl)-N-((5-(trifluoromethyl)-2-pyridinyl)methyl)-1,3-dihydrofuro[3,4-c]quinoline-8-carboxamide], the pIC50 in the experiment with HCT116 MTAP null cells was 7.89; in the experiment with HCT116 WT cells, 6.46.
For `COC[C@@H](C)N(Cc1ccc(C(F)(F)F)cn1)C(=O)c1ccc2nc(N)c3c(c2c1)COC3` [Example 445, 4-amino-N-((2R)-1-methoxy-2-propanyl)-N-((5-(trifluoromethyl)-2-pyridinyl)methyl)-1,3-dihydrofuro[3,4-c]quinoline-8-carboxamide] the same measures were 8.10 and 6.82.
Take `COc1ccc(CN(C(=O)c2ccc3nc(N)c4c(c3c2)COC4)[C@H](C)c2ncccn2)nn1` [Example 446, 4-amino-N-((6-methoxy-3-pyridazinyl)methyl)-N-((1R)-1-(2-pyrimidinyl)ethyl)-1,3-dihydrofuro[3,4-c]quinoline-8-carboxamide]: the pIC50 was 7.92 with HCT116 MTAP null cells and 6.63 in the experiment on HCT116 WT cells.
`Nc1nc2ccc(C(=O)N(Cc3ccc(C(F)(F)F)cn3)C3CCCn4ncnc43)cc2c2c1COC2` [Example 447, 4-amino-N-((8R)-5,6,7,8-tetrahydro[1,2,4]triazolo[1,5-alpyridin-8-yl)-N-((5-(trifluoromethyl)-2-pyridinyl)methyl)-1,3-dihydrofuro[3,4-c]quinoline-8-carboxamide and 4-amino-N-((8S)-5,6,7,8-tetrahydro[1,2,4]triazolo[1,5-a]pyridin-8-yl)-N-((5-(trifluoromethyl)-2-pyridinyl)methyl)-1,3-dihydrofuro[3,4-c]quinoline-8-carboxamide]: the results for the pIC50 in the experiment on HCT116 MTAP null cells and in the experiment with HCT116 WT cells were 7.51 and 6.59, respectively.
Turning to `CN(Cc1ccc(C(F)(F)F)cn1)C(=O)c1ccc2nc(N)c3c(c2c1)COC3` [Example 450, 4-amino-N-methyl-N-((5-(trifluoromethyl)-2-pyridinyl)methyl)-1,3-dihydrofuro[3,4-c]quinoline-8-carboxamide], the pIC50 is 6.80 in the experiment on HCT116 MTAP null cells and 4.94 in the experiment on HCT116 WT cells.
For `CC(C)N(Cc1ccc(C(F)(F)F)cn1)C(=O)c1ccc2nc(N)c3c(c2c1)COC3` [Example 451, 4-amino-N-(2-propanyl)-N-((5-(trifluoromethyl)-2-pyridinyl)methyl)-1,3-dihydrofuro[3,4-c]quinoline-8-carboxamide] the same measures were 7.49 and 5.36.
With `Nc1nc2ccc(C(=O)N(Cc3ccc(N4CCOCC4)nn3)CC3CC3)cc2c2c1COC2` [Example 452, 4-amino-N-(cyclopropylmethyl)-N-((6-(4-morpholinyl)-3-pyridazinyl)methyl)-1,3-dihydrofuro[3,4-c]quinoline-8-carboxamide], the values for the negative-log IC50 (pIC50) with HCT116 MTAP null cells and in the experiment on HCT116 WT cells were 7.33 and 5.80, respectively.
For `C[C@H](c1ncccn1)N(Cc1ccc(OCC(F)(F)F)nn1)C(=O)c1ccc2nc(N)c3c(c2c1)COC3` [Example 453, 4-amino-N-((1R)-1-(2-pyrimidinyl)ethyl)-N-((6-(2,2,2-trifluoroethoxy)-3-pyridazinyl)methyl)-1,3-dihydrofuro[3,4-c]quinoline-8-carboxamide] the same measures were 7.46 and 6.27.
In the same order, the values of `N#Cc1ccc(CN(C(=O)c2ccc3nc(N)c4c(c3c2)COC4)C2CC2)nc1` [Example 454, 4-amino-N-((5-cyano-2-pyridinyl)methyl)-N-cyclopropyl-1,3-dihydrofuro[3,4-c]quinoline-8-carboxamide] are 6.26 and 4.75.
For `Nc1nc2ccc(C(=O)N(Cc3ccc(Br)cn3)C3CC3)cc2c2c1COC2` [Example 455, 4-amino-N-((5-bromo-2-pyridinyl)methyl)-N-cyclopropyl-1,3-dihydrofuro[3,4-c]quinoline-8-carboxamide] the same measures were 6.83 and 5.32.
Regarding `Nc1nc2ccc(C(=O)N(Cc3ccc(C(F)F)cn3)C3CC3)cc2c2c1COC2` [Example 456, 4-amino-N-cyclopropyl-N-((5-(difluoromethyl)-2-pyridinyl)methyl)-1,3-dihydrofuro[3,4-c]quinoline-8-carboxamide], the values for the pIC50 in the experiment on HCT116 MTAP null cells and in the experiment on HCT116 WT cells were 6.54 and below 5.00, respectively.
In the case of `N#Cc1ccc(CN(CC2(C#N)CC2)C(=O)c2ccc3nc(N)c4c(c3c2)COC4)nc1` [Example 457, 4-amino-N-((1-cyanocyclopropyl)methyl)-N-((5-cyano-2-pyridinyl)methyl)-1,3-dihydrofuro[3,4-c]quinoline-8-carboxamide], the results for the negative-log IC50 (pIC50) in the experiment on HCT116 MTAP null cells and with HCT116 WT cells were 6.88 and 5.50, respectively.
For the compound `C[C@H](c1ncccn1)N(Cc1ccc(C2CC2)nn1)C(=O)c1ccc2nc(N)c3c(c2c1)COC3` [Example 458, 4-amino-N-((6-cyclopropyl-3-pyridazinyl)methyl)-N-((1R)-1-(2-pyrimidinyl)ethyl)-1,3-dihydrofuro[3,4-c]quinoline-8-carboxamide], the results for the pIC50 in the experiment on HCT116 MTAP null cells and with HCT116 WT cells were 7.59 and 6.44, respectively.
For `N#Cc1ccc(CN(C(=O)c2cc3c4c(c(N)nc3cc2Cl)COC4)C2CC2)nc1` [Example 461, 4-amino-7-chloro-N-((5-cyano-2-pyridinyl)methyl)-N-cyclopropyl-1,3-dihydrofuro[3,4-c]quinoline-8-carboxamide] the same measures were 7.16 and 5.35.
On to `COc1ccc(CN(C(=O)c2ccc3nc(N)c4c(c3c2)COC4)C(C)C)nc1Cl` [Example 462, 4-amino-N-((6-chloro-5-methoxy-2-pyridinyl)methyl)-N-(2-propanyl)-1,3-dihydrofuro[3,4-c]quinoline-8-carboxamide], for which the results for the pIC50 in the experiment on HCT116 MTAP null cells and with HCT116 WT cells were 6.98 and 5.41, respectively.
For `COC[C@@H](C)N(Cc1ccc(Br)nn1)C(=O)c1ccc2nc(N)c3c(c2c1)COC3` [Example 463, 4-amino-N-((6-bromo-3-pyridazinyl)methyl)-N-((2R)-1-methoxy-2-propanyl)-1,3-dihydrofuro[3,4-c]quinoline-8-carboxamide] the same measures were 7.85 and 6.36.
In the case of `Nc1nc2cc(Cl)c(C(=O)N(Cc3ccc(C(F)(F)F)cn3)CC3CC3)cc2c2c1COC2` [Example 464, 4-amino-7-chloro-N-(cyclopropylmethyl)-N-((5-(trifluoromethyl)-2-pyridinyl)methyl)-1,3-dihydrofuro[3,4-c]quinoline-8-carboxamide], the values for the negative logarithm of the IC50 (pIC50) in the experiment with HCT116 MTAP null cells and in the experiment on HCT116 WT cells were 8.15 and 6.62, respectively.
In the same order, the values of `CC(C)N(Cc1ccc(OC(F)(F)F)cn1)C(=O)c1ccc2nc(N)c3c(c2c1)CO[C@@H]3C` [Example 465, (3R)-4-amino-3-methyl-N-(2-propanyl)-N-((5-(trifluoromethoxy)-2-pyridinyl)methyl)-1,3-dihydrofuro[3,4-c]quinoline-8-carboxamide] are 7.51 and 5.91.
On to `C[C@H](c1ncn(C)n1)N(Cc1ccc(C(F)F)cn1)C(=O)c1ccc2nc(N)c3c(c2c1)CO[C@@H]3C` [Example 466, (3R)-4-amino-N-((5-(difluoromethyl)-2-pyridinyl)methyl)-3-methyl-N-((1R)-1-(1-methyl-1H-1,2,4-triazol-3-yl)ethyl)-1,3-dihydrofuro[3,4-c]quinoline-8-carboxamide], for which the negative logarithm of the IC50 (pIC50) with HCT116 MTAP null cells is 7.55; in the experiment with HCT116 WT cells, 6.66.
On to `C[C@H]1OCc2c1c(N)nc1ccc(C(=O)N(Cc3ccc(C(F)(F)F)cn3)c3cnn(C)c3)cc21` [Example 467, (3R)-4-amino-3-methyl-N-(1-methyl-1H-pyrazol-4-yl)-N-((5-(trifluoromethyl)-2-pyridinyl)methyl)-1,3-dihydrofuro[3,4-c]quinoline-8-carboxamide], for which the pIC50 with HCT116 MTAP null cells was 7.85; in the experiment with HCT116 WT cells, 6.48.
For `COC[C@@H](C)N(Cc1ccc(Br)nn1)C(=O)c1ccc2nc(N)c3c(c2c1)CO[C@@H]3C` [Example 468, (3R)-4-amino-N-((6-bromo-3-pyridazinyl)methyl)-N-((2R)-1-methoxy-2-propanyl)-3-methyl-1,3-dihydrofuro[3,4-c]quinoline-8-carboxamide] the same measures were 8.10 and 6.68.
In the same order, the values of `C[C@H](c1ncccn1)N(Cc1cc2c(cn1)OCCC2)C(=O)c1ccc2nc(N)c3c(c2c1)COC3` [Example 469, 4-amino-N-(3,4-dihydro-2H-pyrano [2,3-c]pyridin-6-ylmethyl)-N-((1R)-1-(2-pyrimidinyl)ethyl)-1,3-dihydrofuro[3,4-c]quinoline-8-carboxamide] are 7.60 and 6.26.
With `CN(Cc1ccc(C(F)(F)F)cn1)C(=O)c1cc2c3c(c(N)nc2cc1Cl)COC3` [Example 470, 4-amino-7-chloro-N-methyl-N-((5-(trifluoromethyl)-2-pyridinyl)methyl)-1,3-dihydrofuro[3,4-c]quinoline-8-carboxamide], the negative logarithm of the IC50 (pIC50) in the experiment with HCT116 MTAP null cells was 7.39; in the experiment with HCT116 WT cells it was 5.52.
For `Nc1nc2ccc(C(=O)N(Cc3ccc(C(F)(F)F)cn3)C34CC(C3)C4)cc2c2c1COC2` [Example 471, 4-amino-N-(bicyclo[1.1.1]pentan-1-yl)-N-((5-(trifluoromethyl)-2-pyridinyl)methyl)-1,3-dihydrofuro[3,4-c]quinoline-8-carboxamide] the same measures were 7.37 and 5.94.
For `CN(Cc1ccc(C#N)cn1)C(=O)c1cc2c3c(c(N)nc2cc1Cl)COC3` [Example 472, 4-amino-7-chloro-N-((5-cyano-2-pyridinyl)methyl)-N-methyl-1,3-dihydrofuro[3,4-c]quinoline-8-carboxamide] the same measures were 6.57 and 4.83.
